According to US5753681A, “Treatment and prophylaxis of pancreatitis” (Sankyo Company, Limited, priority 1996, dated 1998):
Like-named read-outs stand apart in the source and are kept apart here.

Columns and labels:
[1] = format: in vivo, Wistar-Imamichi rats; settings: 170 mg/kg/day
Text: Since the decrease in the amount of pancreatic parenchyma resulting from chronic pancreatitis causes loss of pancreatic weight, any suppression of the decrease in the amount of pancreatic parenchyma can be used as an index for evaluating any improvement in the pancreatitis. Furthermore, since degeneration and necrosis of the pancreatic parenchyma and its replacement by connective tissue occurs in chronic pancreatitis, the seriousness of the pancreatitis can be estimated by histopathologically measuring the area over which the pancreatic parenchyma is replaced with connective tissue (known as the "cicatrized area").
Measurement of the weight of the pancreas may be carried out by conventional procedures after the experimental animals have been sacrificed by phlebotomy.
The effects of pancreatitis may be simulated, as is conventional, in experimental animals, by the administration of streptozotocin [(N-methylnitroso-carbamoyl)-D-glucosamine: R. A. Bennett et al., Cancer Res., 41, 2786-2790, (1981); a product of Sigma Chemical Company], which is capable of specifically destroying the Langerhans islet B cells and which thus induces a decrease in pancreatic weight. Streptozotocin is administered intravenously to the experimental animal, and then a powdered feed admixed with a test compound is given to a group of animals which have been dosed with streptozotocin. This group is hereafter referred to as the "treated group". Meanwhile, a powdered feed only is given to another group of animals which have been dosed with streptozotocin. This group is hereafter referred to as the "control group". Normal animals (undosed) fed with the feed only are also used as a blank group against the experimental animals (dosed with streptozotocin). After the test compounds have been administered to the animals for a predetermined period, each animal is sacrificed to measure its pancreatic weight. […]
Meanwhile, another group of rats was fed with the powdered feed F2 only. […] After a predetermined period, the rats were sacrificed and the pancreatic weight of each animal was measured.

[2] = tested on: plasma lipase; test: Effect of long term treatment on plasma lipase activity; format: in vivo, male WBN/Kob rats; settings: 9.5 months; for Plasma Lipase Activity: control 33.7 ± 7.8
Text: In pancreatitis, secretion of digestive enzymes is impaired and delivery of digestive enzymes to the duodenum is reduced. In addition, digestive enzymes leak into the blood and their level in the blood and urine increase. Accordingly, the extent of pancreatitis can be estimated by measuring the amount of digestive enzymes which have leaked into the blood (Methods of Clinical Examination: Kinbara Publisher).
The measurement of digestive enzymes may also be carried out by conventional procedures. For example, after the test drug mixed into powdered feed has been administered to male WBN/Kob rats for a definite period, the blood may be collected and the lipase activity (one of the digestive enzymes) in the plasma may be measured.
(§1) The test animals were male WBN/Kob rats. Each group of test animals contained 6 animals, and the animals were used for the experiment when they had reached 12 weeks old. The animals were fed with powdered feed F2 mixed with 0.2% or 0.05% of troglitazone for 9.5 months. These groups are hereinafter referred to as "the 0.2% group" and "the 0.05% group", respectively. The average doses of the compound during this period were 120 mg/kg/day and 30 mg/kg/day, respectively. Meanwhile, another six rats (control group) were fed with the powdered feed F2 only. After the rats had been fed with the feeds for 9.5 months, each rat was decapitated and its blood was collected. The blood serum was separated and the plasma lipase level was measured using an autoanalyser (type 7250, manufactured by Hitachi Ltd.).

[3] = Effect of long term treatment on pancreatic weight; format: in vivo, male WBN/Kob rats; settings: 9.5 months; for Pancreatic weight: control 804 ± 35
Protocol: as §1
After the blood had been collected, the pancreas of each animal was totally enucleated and weighed.

[4] = Histopathology of pancreatic tissue of Example 6: total cross-sectional area and cicatrized area; format: in vivo, male WBN/Kob rats; settings: 9.5 months; for Cicatrized area in the exocrine pancreatic tissue: **p < 0.01
Protocol: The measurement of the cicatrized area may also be carried out by conventional procedures. More specifically, male WBN/Kob rats are used as models of spontaneous chronic pancreatitis and are fed with a powdered feed admixed with a test compound. The pancreas of each animal is then totally enucleated. Its weight is measured and also the cicatrized area is measured relative to the total cross-sectional area of the pancreas tissue sliced by an image analyser.
In order to evaluate the results of Example 2 histopathologically, each pancreas used for weight measurement in Example 2 was fixed in 10% neutral formalin. It was then divided into a spleen side half and a duodenum side half, and each half was sliced at 3 mm intervals to provide cross-sectional tissue pieces. All of these tissue pieces were subjected to paraffin sectioning by conventional procedures and then to hematoxylin-eosin staining and Masson's trichrome staining to prepare two tissue preparations, which were used for histopathological examination. The total cross-sectional area of the pancreatic tissue piece on each preparation was measured using an image analyser (SPICCAII, manufactured by Olympus Optical Co., Ltd.).
In addition, the surface area of the zone which had undergone degeneration and necrosis and in which the exocrine pancreatic tissue was replaced with connective tissue (the cicatrized area) was measured using an image analyser.
as §1
In order to evaluate the results of Example 6 histopathologically, the total cross-sectional area and cicatrized area of each pancreas whose weight was measured in Example 6 was measured by the procedure described in Example 4.

[5] = Acute toxicity; format: in vivo, ddY mice (male); settings: single oral dose of 300 mg/kg, observed for 5 days, three mice
Protocol: Acute toxicity was assayed by conventional procedures. […] At the end of this time, the animals were all alive. When the acute toxicities of Compounds No. 2, 3, 4 and 10 were measured in the same manner, the mice were all alive after an oral dose of 300 mg/kg or more.

[6] = 0.05% group, 30 mg/kg/day in feed
[7] = both the 0.2% group and the 0.05% group, vs. control group

Cc1c(C)c2c(c(C)c1O)CCC(C)(COc1ccc(CC3SC(=O)NC3=O)cc1)O2 (stereo not drawn) [troglitazone, 5-[4-(6-Hydroxy-2,5,7,8-tetramethylchroman-2-ylmethoxy)benzyl]thiazolidine-2,4-dione]
Inhibition of pancreatic weight loss (in words) ([1]; 0.2% in feed, 14 days, vs. control group): significantly inhibited the pancreatic weight loss
Lesions such as edema in the pancreas ([1]; rat, in vivo): no lesions such as edema
Pancreatic weight ([1]; treated group, 0.2% in feed, 14 days, after streptozotocin 25 mg/kg i.v., normal 1333 ± 43, control 1253 ± 39, *p < 0.05 vs. control): 1435 ± 40 mg
Plasma Lipase Activity [2, 6]: 17.5 ± 2.2 IU/l
Plasma Lipase Activity ([2]; 0.2% group, 120 mg/kg/day in feed, *p < 0.05): 13.2 ± 1.0 IU/l
Plasma lipase activity (in words) [2, 7]: significant decrease
Pancreatic weight [3, 6]: 906 ± 63 mg
Pancreatic weight ([3]; 0.2% group, 120 mg/kg/day in feed, ***p < 0.001): 1164 ± 52 mg
Pancreatic weight (in words) [3, 7]: significant increase
Cicatrized area in the exocrine pancreatic tissue ([4]; duodenum side, 0.05% group, control 2.48 ± 0.39): 1.03 ± 0.16 mm^2
Total cross-sectional area of pancreatic tissue piece ([4]; duodenum side, 0.05% group, control 106.1 ± 6.6): 110.6 ± 7.7 mm^2
Cicatrized area in the exocrine pancreatic tissue ([4]; duodenum side, 0.2% group, control 2.48 ± 0.39): 0.65 ± 0.06 mm^2
Total cross-sectional area of pancreatic tissue piece ([4]; duodenum side, 0.2% group, control 106.1 ± 6.6): 122.3 ± 7.4 mm^2
Cicatrized area in the exocrine pancreatic tissue ([4]; spleen side pancreatic half, 0.05% group, control 4.96 ± 0.82): 1.68 ± 0.12 mm^2
Total cross-sectional area of pancreatic tissue piece ([4]; spleen side pancreatic half, 0.05% group, control 103.0 ± 16.9): 96.2 ± 8.2 mm^2
Cicatrized area in the exocrine pancreatic tissue ([4]; spleen side pancreatic half, 0.2% group, control 4.96 ± 0.82): 1.23 ± 0.19 mm^2
Total cross-sectional area of pancreatic tissue piece ([4]; spleen side pancreatic half, 0.2% group, control 103.0 ± 16.9, *p < 0.05): 141.9 ± 10.6 mm^2
Survival (acute toxicity) [5]: all alive
